From US20060100173A1, “Ophthalmic solution” (priority 2004, published 2006)
Counter-ions that a name gives are not always drawn.

Tested on: five organisms
Experiment: Antimicrobial activity, sum of log drops of five organisms
Type: cell-based
Details: HA 1.7M relative to non-HA control and/or lower molecular weight HA compositions; Tris buffered

Compound | reduction of the sum of the kill level by HA of MW 1.7M
CCCCC(CC)CNC(=N)NC(=N)NCCCCCCNC(=N)NC(=N)NCC(CC)CCCC (centres unmarked) [ALX, Alexidine Dihydrochloride] | about 2 log
poly[hexamethylene biguanide hydrochloride] [PHMB] | about 4 log
